Measurements as given in PubChem BioAssay AID190 (DTP/NCI, 2004).
Values joined by “and” are separate entries in the source; they are usually repeats but may differ in a detail not shown here. Equal entries are not always repeated. Toxic doses and inconclusive results are not listed. How the source made its calls: active means survival T/C of 150% or more; inactive means T/C below 125% in these data.

System: AKR/Lw mice, AKR lymphoma ip, median survival T/C
Experiment: NCI In Vivo Anticancer Drug Screen. Data for tumor model Lymphoma AKR (Transplanted) (intraperitoneal) in AKR/Lw mice
Details: endpoint: median survival time, higher = longer survival
Method: The antitumor activity of compounds was measured in mice bearing transplantable tumors. Survival or tumor size were measured and the results are expressed as the measurement made in the treated group (T) divided by the measurement made in the vehicle treated control group (C). The tumor model used in this assay is Lymphoma AKR (Transplanted) (intraperitoneal) in AKR/Lw mice

Measured: T/C

C[C@]12C=CC(=O)C=C1CC[C@@H]1[C@@H]2C(=O)C[C@@]2(C)[C@H]1CC[C@]2(O)C(=O)CO
inactive: dose: 1.5 mg/kg/injection, schedule: Q ##X008 (sc), vehicle: steriod suspending solution 108 % of control | dose: 1.5 mg/kg/injection, schedule: Q## X008 (sc), vehicle: steriod suspending solution 108 % of control | dose: 3.0 mg/kg/injection, schedule: Q ##X008 (sc), vehicle: steriod suspending solution 109 % of control | dose: 3.0 mg/kg/injection, schedule: Q## X008 (sc), vehicle: steriod suspending solution 109 % of control | dose: 5.0 mg/kg/injection, schedule: Q01DX009 (sc), vehicle: steriod suspending solution 97 % of control | dose: 6.0 mg/kg/injection, schedule: Q ##X008 (sc), vehicle: steriod suspending solution 106 % of control | dose: 6.0 mg/kg/injection, schedule: Q## X008 (sc), vehicle: steriod suspending solution 106 % of control | dose: 10.0 mg/kg/injection, schedule: Q01DX009 (sc), vehicle: steriod suspending solution 100 % of control | dose: 12.0 mg/kg/injection, schedule: Q ##X008 (sc), vehicle: steriod suspending solution 120 % of control | dose: 12.0 mg/kg/injection, schedule: Q## X008 (sc), vehicle: steriod suspending solution 120 % of control | dose: 12.5 mg/kg/injection, schedule: Q01DX001 (sc), vehicle: steriod suspending solution 108 % of control | dose: 12.5 mg/kg/injection, schedule: Q01DX008 (sc), vehicle: steriod suspending solution 94 % of control | dose: 12.5 mg/kg/injection, schedule: Q04DX003 (sc), vehicle: steriod suspending solution 112 % of control | dose: 12.5 mg/kg/injection, schedule: Q## X008 (sc), vehicle: steriod suspending solution 94 % of control | dose: 15.0 mg/kg/injection, schedule: Q04DX002 (sc), vehicle: water 96 % of control | dose: 20.0 mg/kg/injection, schedule: Q01DX009 (sc), vehicle: steriod suspending solution 108 % of control | dose: 25.0 mg/kg/injection, schedule: Q01DX001 (sc), vehicle: steriod suspending solution 108 % of control and 113 % of control | dose: 25.0 mg/kg/injection, schedule: Q01DX004 (sc), vehicle: steriod suspending solution 115 % of control | dose: 25.0 mg/kg/injection, schedule: Q01DX008 (sc), vehicle: steriod suspending solution 119 % of control | dose: 25.0 mg/kg/injection, schedule: Q01DX009 (sc), vehicle: Klucel (hydroxypropylcellulose) (HPC) 96 % of control | dose: 25.0 mg/kg/injection, schedule: Q01DX009 (sc), vehicle: steriod suspending solution 100 % of control | dose: 25.0 mg/kg/injection, schedule: Q04DX002 (sc), vehicle: steriod suspending solution 99 % of control and 100 % of control | dose: 25.0 mg/kg/injection, schedule: Q04DX003 (sc), vehicle: steriod suspending solution 87 % of control | dose: 25.0 mg/kg/injection, schedule: Q## X008 (sc), vehicle: steriod suspending solution 120 % of control | dose: 30.0 mg/kg/injection, schedule: Q04DX002 (sc), vehicle: water 94 % of control and 98 % of control | dose: 35.0 mg/kg/injection, schedule: Q01DX001 (sc), vehicle: steriod suspending solution 96 % of control | dose: 45.0 mg/kg/injection, schedule: Q01DX001 (sc), vehicle: steriod suspending solution 105 % of control | dose: 50.0 mg/kg/injection, schedule: Q01DX004 (sc), vehicle: steriod suspending solution 100 % of control | dose: 50.0 mg/kg/injection, schedule: Q01DX008 (sc), vehicle: steriod suspending solution 101 % of control | dose: 50.0 mg/kg/injection, schedule: Q01DX009 (ip), vehicle: water 115 % of control | dose: 50.0 mg/kg/injection, schedule: Q01DX009 (sc), vehicle: steriod suspending solution 110 % of control | dose: 50.0 mg/kg/injection, schedule: Q04DX002 (sc), vehicle: steriod suspending solution 109 % of control | dose: 50.0 mg/kg/injection, schedule: Q04DX003 (sc), vehicle: steriod suspending solution 100 % of control and 108 % of control and 112 % of control | dose: 50.0 mg/kg/injection, schedule: Q## X008 (sc), vehicle: steriod suspending solution 101 % of control | dose: 60.0 mg/kg/injection, schedule: Q04DX002 (sc), vehicle: water 110 % of control and 111 % of control | dose: 75.0 mg/kg/injection, schedule: Q01DX001 (sc), vehicle: steriod suspending solution 100 % of control | dose: 75.0 mg/kg/injection, schedule: Q04DX002 (sc), vehicle: steriod suspending solution 106 % of control | dose: 90.0 mg/kg/injection, schedule: Q01DX001 (sc), vehicle: steriod suspending solution 114 % of control | dose: 100.0 mg/kg/injection, schedule: Q01DX004 (sc), vehicle: steriod suspending solution 113 % of control | dose: 100.0 mg/kg/injection, schedule: Q01DX008 (sc), vehicle: steriod suspending solution 78 % of control | dose: 100.0 mg/kg/injection, schedule: Q01DX009 (ip), vehicle: water 118 % of control | dose: 100.0 mg/kg/injection, schedule: Q01DX009 (sc), vehicle: steriod suspending solution 102 % of control | dose: 100.0 mg/kg/injection, schedule: Q04DX002 (sc), vehicle: steriod suspending solution 110 % of control | dose: 150.0 mg/kg/injection, schedule: Q04DX003 (ip), vehicle: saline 92 % of control | dose: 150.0 mg/kg/injection, schedule: Q04DX003 (sc), vehicle: steriod suspending solution 105 % of control and 118 % of control and 121 % of control | dose: 180.0 mg/kg/injection, schedule: Q01DX001 (sc), vehicle: steriod suspending solution 120 % of control | dose: 200.0 mg/kg/injection, schedule: Q01DX001 (sc), vehicle: steriod suspending solution 93 % of control and 102 % of control (2×) | dose: 200.0 mg/kg/injection, schedule: Q01DX009 (sc), vehicle: steriod suspending solution 89 % of control | dose: 300.0 mg/kg/injection, schedule: Q04DX003 (ip), vehicle: saline 95 % of control | dose: 300.0 mg/kg/injection, schedule: Q04DX003 (sc), vehicle: steriod suspending solution 114 % of control and 115 % of control (2×) | dose: 400.0 mg/kg/injection, schedule: Q04DX003 (sc), vehicle: steriod suspending solution 95 % of control | dose: 500.0 mg/kg/injection, schedule: Q01DX001 (sc), vehicle: steriod suspending solution 95 % of control | dose: 600.0 mg/kg/injection, schedule: Q01DX001 (sc), vehicle: steriod suspending solution 102 % of control

Cc1ccc(N=C(c2ccc([N+](=O)[O-])cc2)c2ccc([N+](=O)[O-])cc2)cc1
inactive: dose: 50.0 mg/kg/injection, schedule: Q01DX001 (ip), vehicle: Klucel (hydroxypropylcellulose) (HPC) 105 % of control | dose: 100.0 mg/kg/injection, schedule: Q01DX001 (ip), vehicle: Klucel (hydroxypropylcellulose) (HPC) 96 % of control | dose: 200.0 mg/kg/injection, schedule: Q01DX001 (ip), vehicle: Klucel (hydroxypropylcellulose) (HPC) 93 % of control and 100 % of control | dose: 400.0 mg/kg/injection, schedule: Q01DX001 (ip), vehicle: Klucel (hydroxypropylcellulose) (HPC) 100 % of control

CC[N+]1=NC2CCCC(C2)C1 (centres undefined)
inactive: dose: 100.0 mg/kg/injection, schedule: Q01DX001 (ip), vehicle: saline 101 % of control | dose: 200.0 mg/kg/injection, schedule: Q01DX001 (ip), vehicle: saline 106 % of control
